Drawing on ChEMBL document CHEMBL3751786, “Toxocara canis: Larvicidal activity of fatty acid amides” (Bioorg Med Chem Lett, 2016), this text covers Activity and MCC for 16 compounds.

Activity calls are given as the source filed them. The calls are words filed in the database; no cut-off is given here.

Data set [1] has as its system Toxocara canis. The data set is described as follows: Larvicidal activity against Toxocara canis larvae infected in BALB/c mouse at 1 mg/ml after 12 hrs. Type of data set: functional.
Data set [2] relates to Toxocara canis. The data set is described as follows: Larvicidal activity against Toxocara canis larvae at 1 mg/ml after 48 hrs by trypan blue assay relative to control. Type of data set: functional.
Data set [3] is described as follows: Cytotoxicity against C57BL/6 mouse peritoneal macrophages at 0.025 to 0.05 mg/ml after 48 hrs by LDH release assay. Type of data set: cell-based. The conditions noted are these: peritoneal macrophage cell. For orientation: LDH leaks from cells whose membrane has failed.
The subject of data set [4] is Toxocara canis. The data set is described as follows: Larvicidal activity against Toxocara canis larvae infected in BALB/c mouse at 0.05 mg/ml after 12 hrs. Type of data set: functional.
Data set [5] can be described thus: Cytotoxicity against C57BL/6 mouse peritoneal macrophages at 0.025 to 0.05 mg/ml after 48 hrs by MTT assay. The conditions noted are these: read-out: MLC. Type of data set: cell-based, Peritoneal macrophage cell. (Tetrazolium assays rely on reduction of a dye to a coloured formazan, in cell work by metabolically active cells.)
For data set [6], the system named is Toxocara canis. The data set is described as follows: Larvicidal activity against Toxocara canis larvae infected in BALB/c mouse at 40 mg/kg after 12 hrs. Type of data set: functional, organism-based.

For `CCCCCCCC/C=C\CCCCCCCC(=O)N[C@H](C)c1ccccc1`, in the data set on Toxocara canis [1], the result was Active. Moreover, the Activity in the data set on Toxocara canis [2] came out at 100%.
With `CCCCCC[C@@H](O)C/C=C\CCCCCCCC(=O)N[C@H](C)c1ccccc1`, the outcome in the data set on Toxocara canis [1] was Active. In the data set with Toxocara canis [2], this compound returned an Activity of 100%.
For `CCCCC/C=C\C/C=C\CCCCCCCC(=O)N[C@@H](C)c1ccccc1`, the result in the data set on Toxocara canis [1] was Active. This compound also registered an Activity in the data set on Toxocara canis [2] of 100%.
As to `CCCCCCCC/C=C\CCCCCCCC(=O)NC(C)c1ccccc1` (centres undefined), in the data set with Toxocara canis [1], the result was Active. This compound also registered an Activity in the data set on Toxocara canis [2] of 100%.
As to `CCCCCCCC/C=C\CCCCCCCC(=O)NN1CCOCC1`, the outcome in the data set with Toxocara canis [1] was Active. In the data set on Toxocara canis [2], this compound yielded an Activity of 100%.
Turning to `CCCCC/C=C\C/C=C\CCCCCCCC(=O)NN1CCCC1`, the figures for the Activity (in data set [3]; with Toxocara canis [2]) were 27% and 100%, respectively. Moreover, in the data set with Toxocara canis [4], the result was Active. Further, in data set [5], the MCC at 48 h turned out to be 50 µg/mL.
Take `CCCCC/C=C\C/C=C\CCCCCCCC(=O)N[C@H](C)c1ccccc1`: in the data set on Toxocara canis [1], the outcome was Active. Besides, in the data set with Toxocara canis [2], the Activity amounted to 100%.
For `CCCCCC[C@@H](O)C/C=C\CCCCCCCC(=O)NN1CCCC1` the same measures were “Active” and 100%.
Regarding `CCCCCC[C@@H](O)C/C=C\CCCCCCCC(=O)N[C@@H](C)c1ccccc1`, in the data set with Toxocara canis [1], the outcome was Active. The compound further returned an Activity with Toxocara canis [2] of 100%.
Consider `CCCCCCCCCCCCCCCCCC(=O)N[C@@H](C)c1ccccc1`, for which the result in the data set with Toxocara canis [1] was Active. Further, the Activity in the data set with Toxocara canis [2] was found to be 100%.
Take `CCCCCCCC/C=C\CCCCCCCC(=O)N[C@@H](C)c1ccccc1`: in the data set with Toxocara canis [1], the result was Active. In the data set on Toxocara canis [2], the Activity was 100%.
For `CCCCCCCCCCCCCCCC(=O)N[C@H](C)c1ccccc1` the same measures were “Active” and 100%.
For the compound `CCCCCC[C@@H](O)C/C=C\CCCCCCCC(=O)NCc1ccccc1`, the result in the data set with Toxocara canis [1] was Active. For the same compound, the Activity with Toxocara canis [2] was determined as 100%.
`CCCCCCCCCCCCCCCCCC(=O)N[C@H](C)c1ccccc1`: in the data set on Toxocara canis [1], the outcome was Active. In the data set with Toxocara canis [2], this compound showed an Activity of 100%.
Regarding `CCCCCC[C@@H](O)C/C=C\CCCCCCCC(=O)NN1CCOCC1`, the result in the data set with Toxocara canis [1] was Active. Further, the Activity in the data set with Toxocara canis [2] turned out to be 100%.
Turning to `CCCSc1ccc2[nH]c(NC(=O)OC)nc2c1` [ALBENDAZOLE], in the data set on Toxocara canis [2], the Activity is on record as 100%. Further, in the data set with Toxocara canis [6], the result was Active.
